According to ChEMBL document CHEMBL1201862, “PubChem BioAssay data set” (2004):
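48-hour exposure; five concentrations; linearly interpolated endpoints. At the GI50, growth is halved.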 Activity calls are given as the source filed them. No stated cut-off is given here; in the data, active = GI50 up to about 1.1 µM and inactive = higher.

Experiments:
Assay in all cases: growth of human tumour cells (NCI), 48 h
SW-620 = tested on: SW-620
SF-295 = tested on: SF-295
K562 = tested on: K562
SF-268 = tested on: SF-268
CAKI-1 = tested on: CAKI-1
A498 = tested on: A498
786-0 = tested on: 786-0
HOP-92 = tested on: HOP-92
LOX IMVI = tested on: LOX IMVI
Malme-3M = tested on: Malme-3M
EKVX = tested on: EKVX
RPMI-8226 = tested on: RPMI-8226
COLO 205 = tested on: COLO 205
HCT-116 = tested on: HCT-116
SF-539 = tested on: SF-539
SK-MEL-2 = tested on: SK-MEL-2
OVCAR-4 = tested on: OVCAR-4
KM12 = tested on: KM12
LXFL 529 = tested on: LXFL 529
UO-31 = tested on: UO-31
CCRF-CEM = tested on: CCRF-CEM
OVCAR-5 = tested on: OVCAR-5
NCI-H23 = tested on: NCI-H23
SNB-78 = tested on: SNB-78
NCI-H226 = tested on: NCI-H226
A549 = tested on: A549
U-251 = tested on: U-251
SK-MEL-28 = tested on: SK-MEL-28
DLD-1 = tested on: DLD-1
RXF 393 = tested on: RXF 393
UACC-62 = tested on: UACC-62
NCI-H522 = tested on: NCI-H522
IGROV-1 = tested on: IGROV-1
SK-OV-3 = tested on: SK-OV-3
DMS-114 = tested on: DMS-114
NCI-H460 = tested on: NCI-H460
HT-29 = tested on: HT-29
SK-MEL-5 = tested on: SK-MEL-5
SNB-19 = tested on: SNB-19
OVCAR-8 = tested on: OVCAR-8
MOLT-4 = tested on: MOLT-4
UACC-257 = tested on: UACC-257
SN12C = tested on: SN12C
ACHN = tested on: ACHN
HCT-15 = tested on: HCT-15
MCF7 = tested on: MCF7
MDA-N = tested on: MDA-N
DU-145 = tested on: DU-145
NCI/ADR-RES = tested on: NCI/ADR-RES
HL-60 = tested on: HL-60
M14 = tested on: M14
HOP-62 = tested on: HOP-62
MDA-MB-435 = tested on: MDA-MB-435
BT-549 = tested on: BT-549
MDA-MB-231 = tested on: MDA-MB-231
TK-10 = tested on: TK-10
SNB-75 = tested on: SNB-75
PC-3 = tested on: PC-3
SR = tested on: SR
Hs-578T = tested on: Hs-578T
OVCAR-3 = tested on: OVCAR-3
HCC 2998 = tested on: HCC 2998
T47D = tested on: T47D
KM-20L2 = tested on: KM-20L2
XF498 = tested on: XF498
DMS-273 = tested on: DMS-273
M19-MEL = tested on: M19-MEL

COc1cc(/C=N/N=C(\N)NO)ccc1O was tested, and the GI50 (SW-620) was 68.2 µM (inactive), the GI50 (SF-295) was 26.1 µM (inactive) and the GI50 (K562) was 33.3 µM (inactive). The GI50 (SF-268) was 56 µM (inactive), the GI50 (CAKI-1) was 28.6 µM (inactive) and the GI50 (A498) was 44.9 µM (inactive). The GI50 (786-0) was > 10 µM (inactive), the GI50 (HOP-92) was > 100 µM (inactive) and the GI50 (LOX IMVI) was 30.5 µM (inactive). For the same compound, the GI50 (Malme-3M) was 75.9 µM (inactive), the GI50 (EKVX) was 71.9 µM (inactive) and the GI50 (RPMI-8226) was > 100 µM (inactive). For the same compound, the GI50 (COLO 205) was > 100 µM (inactive), the GI50 (HCT-116) was 69.8 µM (inactive) and the GI50 (SF-539) was 46.3 µM (inactive). The GI50 (SK-MEL-2) was 69.3 µM (inactive), the GI50 (OVCAR-4) was > 100 µM (inactive) and the GI50 (KM12) was 77.1 µM (inactive). The GI50 (LXFL 529) was 28.6 µM (inactive), the GI50 (UO-31) was 41.4 µM (inactive) and the GI50 (CCRF-CEM) was > 100 µM (inactive). The GI50 (OVCAR-5) was 18.1 µM (inactive), the GI50 (NCI-H23) was 57.1 µM (inactive) and the GI50 (SNB-78) was > 100 µM (inactive). For the same compound, the GI50 (NCI-H226) was 14.1 µM (inactive), the GI50 (A549) was 47.3 µM (inactive) and the GI50 (U-251) was 91.2 µM (inactive). For the same compound, the GI50 (SK-MEL-28) was 26 µM (inactive), the GI50 (DLD-1) was > 100 µM (inactive) and the GI50 (RXF 393) was 31.5 µM (inactive). For the same compound, the GI50 (UACC-62) was 30.4 µM (inactive), the GI50 (NCI-H522) was 46.3 µM (inactive) and the GI50 (IGROV-1) was > 100 µM (inactive). For the same compound, the GI50 (SK-OV-3) was 78.7 µM (inactive), the GI50 (DMS-114) was 39.9 µM (inactive) and the GI50 (NCI-H460) was 38.8 µM (inactive). The GI50 (HT-29) was 67.8 µM (inactive), the GI50 (SK-MEL-5) was 53 µM (inactive) and the GI50 (SNB-19) was > 100 µM (inactive). The GI50 (OVCAR-8) was 63.7 µM (inactive), the GI50 (MOLT-4) was 65.9 µM (inactive) and the GI50 (UACC-257) was > 100 µM (inactive). The GI50 (SN12C) was > 100 µM (inactive), the GI50 (ACHN) was 44.1 µM (inactive) and the GI50 (HCT-15) was 50 µM.
With CC(=O)Nc1ccc2c3c(cc(O)c2c1)N(C(=O)CCCCC(=O)Nc1ccc2c4c(cc(O)c2c1)N(C(=O)OC(C)(C)C)CC4CCl)CC3CCl (stereo unspecified) the GI50 (SW-620) was 2.82 µM (inactive), the GI50 (SF-295) was 4.66 µM (inactive) and the GI50 (MCF7) was 0.373 µM (active). For the same compound, the GI50 (MDA-N) was 1.77 µM (inactive), the GI50 (DU-145) was 0.826 µM (active) and the GI50 (K562) was 2.62 µM (inactive). The GI50 (NCI/ADR-RES) was 21.7 µM (inactive), the GI50 (SF-268) was 0.804 µM (active) and the GI50 (CAKI-1) was 17.4 µM (inactive). For the same compound, the GI50 (HL-60) was 0.42 µM (active), the GI50 (A498) was 1.94 µM (inactive) and the GI50 (786-0) was 2.76 µM (inactive). The GI50 (M14) was 3.27 µM (inactive), the GI50 (HOP-62) was 3.05 µM (inactive) and the GI50 (HOP-92) was 2.7 µM (inactive). The GI50 (LOX IMVI) was 2.19 µM (inactive), the GI50 (Malme-3M) was 1.39 µM (inactive) and the GI50 (EKVX) was 12.8 µM (inactive). The GI50 (RPMI-8226) was 3.13 µM (inactive), the GI50 (COLO 205) was 1.82 µM (inactive) and the GI50 (HCT-116) was 2.22 µM (inactive). The GI50 (MDA-MB-435) was 1.78 µM (inactive), the GI50 (SF-539) was 2.25 µM (inactive) and the GI50 (SK-MEL-2) was 1.75 µM (inactive). For the same compound, the GI50 (OVCAR-4) was 2.52 µM (inactive), the GI50 (KM12) was 2.79 µM (inactive) and the GI50 (BT-549) was 1.77 µM (inactive). For the same compound, the GI50 (UO-31) was 24.3 µM (inactive), the GI50 (MDA-MB-231) was 3.8 µM (inactive) and the GI50 (TK-10) was 10.4 µM (inactive). The GI50 (CCRF-CEM) was 0.193 µM (active), the GI50 (OVCAR-5) was 3.29 µM (inactive) and the GI50 (NCI-H23) was 1.05 µM (active). The GI50 (NCI-H226) was 2.13 µM (inactive), the GI50 (A549) was 7.62 µM (inactive) and the GI50 (U-251) was 1.53 µM (inactive). For the same compound, the GI50 (SK-MEL-28) was 3.3 µM (inactive), the GI50 (SNB-75) was 1.82 µM (inactive) and the GI50 (RXF 393) was 1.53 µM (inactive). The GI50 (UACC-62) was 1.54 µM (inactive), the GI50 (PC-3) was 3.25 µM (inactive) and the GI50 (NCI-H522) was 0.74 µM (active). For the same compound, the GI50 (IGROV-1) was 1.92 µM (inactive), the GI50 (SK-OV-3) was 4.4 µM (inactive) and the GI50 (NCI-H460) was 1.83 µM (inactive). The GI50 (HT-29) was 2.82 µM (inactive), the GI50 (SR) was 0.137 µM (active) and the GI50 (SK-MEL-5) was 1.54 µM (inactive). The GI50 (SNB-19) was 2.09 µM (inactive), the GI50 (Hs-578T) was 3.55 µM (inactive) and the GI50 (OVCAR-8) was 3.08 µM (inactive). For the same compound, the GI50 (OVCAR-3) was 2.26 µM (inactive), the GI50 (MOLT-4) was 0.302 µM (active) and the GI50 (HCC 2998) was 1.66 µM (inactive). The GI50 (T47D) was 0.82 µM (active), the GI50 (UACC-257) was 2.26 µM (inactive) and the GI50 (SN12C) was 2.38 µM (inactive). For the same compound, the GI50 (ACHN) was 3.2 µM (inactive) and the GI50 (HCT-15) was 16.7 µM.
In the case of O=C1Nc2c(ccc(Cl)c2I)C1=O, the GI50 (SW-620) is reported as 18.7 µM (inactive), the GI50 (SF-295) is reported as 19.2 µM (inactive) and the GI50 (K562) is reported as 23.8 µM (inactive). For the same compound, the GI50 (SF-268) was 20 µM (inactive), the GI50 (CAKI-1) was 16.4 µM (inactive) and the GI50 (HL-60) was 18.5 µM (inactive). For the same compound, the GI50 (786-0) was 15 µM (inactive), the GI50 (M14) was 15.7 µM (inactive) and the GI50 (HOP-62) was 20.8 µM (inactive). For the same compound, the GI50 (LOX IMVI) was 19.1 µM (inactive), the GI50 (Malme-3M) was 15 µM (inactive) and the GI50 (EKVX) was 16.4 µM (inactive). For the same compound, the GI50 (RPMI-8226) was 15.5 µM (inactive), the GI50 (COLO 205) was 16.3 µM (inactive) and the GI50 (HCT-116) was 19.1 µM (inactive). For the same compound, the GI50 (SK-MEL-2) was 13.7 µM (inactive), the GI50 (OVCAR-4) was 16.9 µM (inactive) and the GI50 (KM12) was 24.4 µM (inactive). For the same compound, the GI50 (LXFL 529) was 14 µM (inactive), the GI50 (UO-31) was 18.2 µM (inactive) and the GI50 (TK-10) was 36.2 µM (inactive). For the same compound, the GI50 (CCRF-CEM) was 20.2 µM (inactive), the GI50 (OVCAR-5) was 20 µM (inactive) and the GI50 (NCI-H23) was 14.6 µM (inactive). The GI50 (NCI-H226) was 22.5 µM (inactive), the GI50 (A549) was 34.9 µM (inactive) and the GI50 (U-251) was 25.5 µM (inactive). For the same compound, the GI50 (SK-MEL-28) was 18.4 µM (inactive), the GI50 (DLD-1) was 18.5 µM (inactive) and the GI50 (KM-20L2) was 30 µM (inactive). For the same compound, the GI50 (RXF 393) was 17.4 µM (inactive), the GI50 (UACC-62) was 17.6 µM (inactive) and the GI50 (NCI-H522) was 15.6 µM (inactive). For the same compound, the GI50 (IGROV-1) was 16.6 µM (inactive), the GI50 (SK-OV-3) was 18.5 µM (inactive) and the GI50 (DMS-114) was 15.5 µM (inactive). For the same compound, the GI50 (NCI-H460) was 17.9 µM (inactive), the GI50 (HT-29) was 28.4 µM (inactive) and the GI50 (SR) was 18.8 µM (inactive). For the same compound, the GI50 (SK-MEL-5) was 15.7 µM (inactive), the GI50 (SNB-19) was 42.3 µM (inactive) and the GI50 (OVCAR-8) was 28.2 µM (inactive). For the same compound, the GI50 (OVCAR-3) was 19.9 µM (inactive), the GI50 (XF498) was 16 µM (inactive) and the GI50 (MOLT-4) was 18.7 µM (inactive). For the same compound, the GI50 (HCC 2998) was 19.6 µM (inactive), the GI50 (DMS-273) was 17 µM (inactive) and the GI50 (UACC-257) was > 10 µM (inactive). For the same compound, the GI50 (SN12C) was 17.1 µM (inactive), the GI50 (ACHN) was 15.6 µM (inactive) and the GI50 (HCT-15) was 18.9 µM. For the same compound, the GI50 (M19-MEL) was 11.4 µM (inactive).
